# Measured values reported in PubChem BioAssay (NCI).
#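 48-hour exposure; five concentrations; linearly interpolated endpoints. Abbreviation: GI50, concentration required for 50% inhibition of growth. TGI: total growth inhibition.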
# Experiments:
# Assay in all cases: NCI anticancer screen, dose series, 48 h
# MALME-3M melanoma = system: MALME-3M melanoma
# OVCAR-3 ovarian = system: OVCAR-3 ovarian
# SNB-19 CNS = system: SNB-19 CNS
# T-47D breast = system: T-47D breast
# UACC-257 melanoma = system: UACC-257 melanoma
# HCC-2998 colon = system: HCC-2998 colon
# A549 NSCLC = system: A549 NSCLC
# HOP-92 NSCLC = system: HOP-92 NSCLC
# EKVX NSCLC = system: EKVX NSCLC
# MDA-MB-231 breast = system: MDA-MB-231 breast
# HCT-15 colon = system: HCT-15 colon
# NCI/ADR-RES ovarian = system: NCI/ADR-RES ovarian
# SK-MEL-2 melanoma = system: SK-MEL-2 melanoma
# NCI-H460 lung = system: NCI-H460 lung
# CAKI-1 renal = system: CAKI-1 renal
# NCI-H226 lung = system: NCI-H226 lung
# ACHN renal = system: ACHN renal
# KM12 colon = system: KM12 colon
# RXF 393 renal = system: RXF 393 renal
# SK-OV-3 ovarian = system: SK-OV-3 ovarian
# M14 melanoma = system: M14 melanoma
# HT29 colon = system: HT29 colon
# SK-MEL-28 melanoma = system: SK-MEL-28 melanoma
# CCRF-CEM leukemia = system: CCRF-CEM leukemia
# OVCAR-4 ovarian = system: OVCAR-4 ovarian
# SR leukemia = system: SR leukemia
# BT-549 breast = system: BT-549 breast
# MDA-MB-468 breast = system: MDA-MB-468 breast
# HL-60(TB) leukemia = system: HL-60(TB) leukemia
# DU-145 prostate = system: DU-145 prostate
# LOX IMVI melanoma = system: LOX IMVI melanoma
# SK-MEL-5 melanoma = system: SK-MEL-5 melanoma
# TK-10 renal = system: TK-10 renal
# 786-0 renal = system: 786-0 renal
# SW-620 colon = system: SW-620 colon
# OVCAR-8 ovarian = system: OVCAR-8 ovarian
# SF-295 CNS = system: SF-295 CNS
# COLO 205 colon = system: COLO 205 colon
# NCI-H23 lung = system: NCI-H23 lung
# RPMI-8226 leukemia = system: RPMI-8226 leukemia
# MDA-MB-435 = system: MDA-MB-435
# HOP-62 NSCLC = system: HOP-62 NSCLC
# K-562 leukemia = system: K-562 leukemia
# SF-539 CNS = system: SF-539 CNS
# IGROV1 ovarian = system: IGROV1 ovarian
# HS 578T breast = system: HS 578T breast
# A498 renal = system: A498 renal
# U251 CNS = system: U251 CNS
# SNB-75 CNS = system: SNB-75 CNS
# NCI-H522 lung = system: NCI-H522 lung
# SN12C renal = system: SN12C renal
# MCF7 breast = system: MCF7 breast
# UACC-62 melanoma = system: UACC-62 melanoma
# MOLT-4 leukemia = system: MOLT-4 leukemia
# UO-31 renal = system: UO-31 renal
# SF-268 CNS = system: SF-268 CNS
# HCT-116 colon = system: HCT-116 colon
# PC-3 prostate = system: PC-3 prostate
# OVCAR-5 ovarian = system: OVCAR-5 ovarian
smiles,measurement,setting,value
O=C(Nc1ccc(OCc2ccc(Cl)cc2)cc1)Nc1ccc(Cl)c(C(F)(F)F)c1,GI50,MALME-3M melanoma,1.75 µM
same,TGI,MALME-3M melanoma,4.51 µM
same,GI50,OVCAR-3 ovarian,1.98 µM
same,TGI,OVCAR-3 ovarian,8.35 µM
same,GI50,SNB-19 CNS,2.45 µM
same,TGI,SNB-19 CNS,7.99 µM
same,GI50,T-47D breast,2.06 µM
same,TGI,T-47D breast,10.1 µM
same,GI50,UACC-257 melanoma,2.33 µM
same,TGI,UACC-257 melanoma,5.96 µM
same,GI50,HCC-2998 colon,2.89 µM
same,TGI,HCC-2998 colon,11.7 µM
same,GI50,A549 NSCLC,2.19 µM
same,TGI,A549 NSCLC,8.07 µM
same,GI50,HOP-92 NSCLC,1.96 µM
same,TGI,HOP-92 NSCLC,5.37 µM
same,GI50,EKVX NSCLC,2.18 µM
same,TGI,EKVX NSCLC,5.95 µM
same,GI50,MDA-MB-231 breast,2.45 µM
same,TGI,MDA-MB-231 breast,6.88 µM
same,GI50,HCT-15 colon,1.87 µM
same,TGI,HCT-15 colon,10.6 µM
same,GI50,NCI/ADR-RES ovarian,1.74 µM
same,TGI,NCI/ADR-RES ovarian,5.41 µM
same,GI50,SK-MEL-2 melanoma,2 µM
same,TGI,SK-MEL-2 melanoma,4.6 µM
same,GI50,NCI-H460 lung,1.47 µM
same,TGI,NCI-H460 lung,3.99 µM
same,GI50,CAKI-1 renal,2.31 µM
same,TGI,CAKI-1 renal,6.83 µM
same,GI50,NCI-H226 lung,2 µM
same,TGI,NCI-H226 lung,5.27 µM
same,GI50,ACHN renal,2.37 µM
same,TGI,ACHN renal,7.62 µM
same,GI50,KM12 colon,2.62 µM
same,TGI,KM12 colon,9.32 µM
same,GI50,RXF 393 renal,2.89 µM
same,TGI,RXF 393 renal,6.17 µM
same,GI50,SK-OV-3 ovarian,3.42 µM
same,TGI,SK-OV-3 ovarian,11.6 µM
same,GI50,M14 melanoma,2.8 µM
same,TGI,M14 melanoma,12.1 µM
same,GI50,HT29 colon,2.78 µM
same,TGI,HT29 colon,10.2 µM
same,GI50,SK-MEL-28 melanoma,2.84 µM
same,TGI,SK-MEL-28 melanoma,10.4 µM
same,GI50,CCRF-CEM leukemia,3.05 µM
same,TGI,CCRF-CEM leukemia,79.6 µM
same,GI50,OVCAR-4 ovarian,2.37 µM
same,TGI,OVCAR-4 ovarian,9.36 µM
same,GI50,SR leukemia,2.95 µM
same,TGI,SR leukemia,15.7 µM
same,GI50,BT-549 breast,2.37 µM
same,TGI,BT-549 breast,5.63 µM
same,GI50,MDA-MB-468 breast,1.54 µM
same,TGI,MDA-MB-468 breast,4.41 µM
same,GI50,HL-60(TB) leukemia,2.33 µM
same,TGI,HL-60(TB) leukemia,7.07 µM
same,GI50,DU-145 prostate,2.83 µM
same,TGI,DU-145 prostate,10.7 µM
same,GI50,LOX IMVI melanoma,1.85 µM
same,TGI,LOX IMVI melanoma,3.57 µM
same,GI50,SK-MEL-5 melanoma,1.75 µM
same,TGI,SK-MEL-5 melanoma,3.35 µM
same,GI50,TK-10 renal,2.74 µM
same,TGI,TK-10 renal,9.69 µM
same,GI50,786-0 renal,4.09 µM
same,TGI,786-0 renal,13.3 µM
same,GI50,SW-620 colon,2.56 µM
same,TGI,SW-620 colon,10.3 µM
same,GI50,OVCAR-8 ovarian,2.32 µM
same,TGI,OVCAR-8 ovarian,7.19 µM
same,GI50,SF-295 CNS,1.42 µM
same,TGI,SF-295 CNS,3.7 µM
same,GI50,COLO 205 colon,1.97 µM
same,TGI,COLO 205 colon,4.23 µM
same,GI50,NCI-H23 lung,1.39 µM
same,TGI,NCI-H23 lung,3.83 µM
same,GI50,RPMI-8226 leukemia,1.55 µM
same,TGI,RPMI-8226 leukemia,13.5 µM
same,GI50,MDA-MB-435,2.59 µM
same,TGI,MDA-MB-435,8.51 µM
same,GI50,HOP-62 NSCLC,2.64 µM
same,TGI,HOP-62 NSCLC,8.18 µM
same,GI50,K-562 leukemia,1.72 µM
same,TGI,K-562 leukemia,65.7 µM
same,GI50,SF-539 CNS,2.4 µM
same,TGI,SF-539 CNS,5.98 µM
same,GI50,IGROV1 ovarian,3.25 µM
same,TGI,IGROV1 ovarian,13.5 µM
same,GI50,HS 578T breast,2.27 µM
same,TGI,HS 578T breast,6.7 µM
same,GI50,A498 renal,1.96 µM
same,TGI,A498 renal,5.21 µM
same,GI50,U251 CNS,1.92 µM
same,TGI,U251 CNS,4.55 µM
same,GI50,SNB-75 CNS,1.42 µM
same,TGI,SNB-75 CNS,5.45 µM
same,GI50,NCI-H522 lung,1.82 µM
same,TGI,NCI-H522 lung,5.28 µM
same,GI50,SN12C renal,2.03 µM
same,TGI,SN12C renal,6.46 µM
same,GI50,MCF7 breast,1.95 µM
same,TGI,MCF7 breast,5.96 µM
same,GI50,UACC-62 melanoma,2.4 µM
same,TGI,UACC-62 melanoma,10.6 µM
same,GI50,MOLT-4 leukemia,3.02 µM
same,TGI,MOLT-4 leukemia,27.2 µM
same,GI50,UO-31 renal,1.82 µM
same,TGI,UO-31 renal,6.73 µM
same,GI50,SF-268 CNS,3.18 µM
same,TGI,SF-268 CNS,13.2 µM
same,GI50,HCT-116 colon,1.87 µM
same,TGI,HCT-116 colon,7.71 µM
same,GI50,PC-3 prostate,1.19 µM
same,TGI,PC-3 prostate,13.8 µM
same,GI50,OVCAR-5 ovarian,3.01 µM
same,TGI,OVCAR-5 ovarian,17.4 µM
